According to paper PMC11148329 (Frontiers in Cellular and Infection Microbiology, 2024):
Where “and” joins values, the source holds several entries; their conditions need not be identical. Equal values may be shown once. Read-outs that look alike come from different tables or passages of the source.

What was measured:
α7 nAChR [1] = molecular target: T1, α7 nAChR (Homo sapiens, UniProt P36544); assay: cell-based; format: cell-based
Target sequence in this assay (P36544 23-502 limits assumed): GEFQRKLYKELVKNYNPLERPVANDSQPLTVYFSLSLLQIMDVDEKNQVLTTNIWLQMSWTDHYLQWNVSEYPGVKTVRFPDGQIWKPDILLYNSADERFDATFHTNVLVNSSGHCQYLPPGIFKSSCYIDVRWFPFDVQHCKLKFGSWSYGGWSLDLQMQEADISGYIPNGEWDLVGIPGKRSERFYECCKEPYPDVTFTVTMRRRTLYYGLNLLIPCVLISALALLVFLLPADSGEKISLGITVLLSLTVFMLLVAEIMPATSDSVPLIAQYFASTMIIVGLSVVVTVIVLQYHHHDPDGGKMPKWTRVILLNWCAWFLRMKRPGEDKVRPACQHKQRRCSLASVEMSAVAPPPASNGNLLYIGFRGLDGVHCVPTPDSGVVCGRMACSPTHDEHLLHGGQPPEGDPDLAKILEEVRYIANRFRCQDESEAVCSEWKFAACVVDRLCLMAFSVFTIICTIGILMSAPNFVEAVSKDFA

α7 nAChR [2] = molecular target: T1, α7 nAChR; assay: cell-based; format: cell-based; remark: listed apart in the source
Target sequence in this assay (P36544 23-502 limits assumed): as above

α7 nAChR [3] = molecular target: T1, α7 nAChR; format: cell-based
Target sequence in this assay (P36544 23-502): as the sequence (P36544 23-502 limits assumed) above

β3-α6-β2-α4-β2 nAChR = β3-α6-β2-α4-β2 nAChR (Homo sapiens, UniProt P17787+P43681+Q15825); assay: cell-based
Sequence of β3-α6-β2-α4-β2 nAChR (Q05901 22-458): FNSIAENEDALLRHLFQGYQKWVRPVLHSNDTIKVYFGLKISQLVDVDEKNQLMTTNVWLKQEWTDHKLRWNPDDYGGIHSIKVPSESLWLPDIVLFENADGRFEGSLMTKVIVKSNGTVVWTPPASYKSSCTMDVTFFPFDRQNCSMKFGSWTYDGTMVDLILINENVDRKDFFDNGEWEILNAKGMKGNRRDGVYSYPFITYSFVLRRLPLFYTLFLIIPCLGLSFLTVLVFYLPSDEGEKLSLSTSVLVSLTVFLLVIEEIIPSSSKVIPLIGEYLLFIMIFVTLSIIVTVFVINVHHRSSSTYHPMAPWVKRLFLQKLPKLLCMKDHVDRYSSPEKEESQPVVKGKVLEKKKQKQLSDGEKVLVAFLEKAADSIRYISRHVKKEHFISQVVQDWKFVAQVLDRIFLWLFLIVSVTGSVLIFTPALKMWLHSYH
Sequence of β3-α6-β2-α4-β2 nAChR (P43681 27-627): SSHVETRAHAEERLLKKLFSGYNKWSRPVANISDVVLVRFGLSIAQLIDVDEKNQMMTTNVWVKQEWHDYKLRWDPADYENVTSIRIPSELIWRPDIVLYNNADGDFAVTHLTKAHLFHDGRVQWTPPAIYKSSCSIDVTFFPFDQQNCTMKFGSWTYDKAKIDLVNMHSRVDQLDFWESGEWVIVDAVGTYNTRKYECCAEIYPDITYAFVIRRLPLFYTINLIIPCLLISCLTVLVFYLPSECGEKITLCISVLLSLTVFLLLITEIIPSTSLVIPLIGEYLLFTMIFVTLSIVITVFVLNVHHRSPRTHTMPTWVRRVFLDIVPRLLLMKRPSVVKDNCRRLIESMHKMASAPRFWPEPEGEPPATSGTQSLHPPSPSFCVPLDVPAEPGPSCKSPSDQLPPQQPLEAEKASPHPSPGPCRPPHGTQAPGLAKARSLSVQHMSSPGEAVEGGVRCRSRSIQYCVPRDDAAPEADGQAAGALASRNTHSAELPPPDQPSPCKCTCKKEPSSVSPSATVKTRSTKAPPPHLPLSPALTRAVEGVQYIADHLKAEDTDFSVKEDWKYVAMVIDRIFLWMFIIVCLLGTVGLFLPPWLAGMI
Sequence of β3-α6-β2-α4-β2 nAChR (Q15825 26-494): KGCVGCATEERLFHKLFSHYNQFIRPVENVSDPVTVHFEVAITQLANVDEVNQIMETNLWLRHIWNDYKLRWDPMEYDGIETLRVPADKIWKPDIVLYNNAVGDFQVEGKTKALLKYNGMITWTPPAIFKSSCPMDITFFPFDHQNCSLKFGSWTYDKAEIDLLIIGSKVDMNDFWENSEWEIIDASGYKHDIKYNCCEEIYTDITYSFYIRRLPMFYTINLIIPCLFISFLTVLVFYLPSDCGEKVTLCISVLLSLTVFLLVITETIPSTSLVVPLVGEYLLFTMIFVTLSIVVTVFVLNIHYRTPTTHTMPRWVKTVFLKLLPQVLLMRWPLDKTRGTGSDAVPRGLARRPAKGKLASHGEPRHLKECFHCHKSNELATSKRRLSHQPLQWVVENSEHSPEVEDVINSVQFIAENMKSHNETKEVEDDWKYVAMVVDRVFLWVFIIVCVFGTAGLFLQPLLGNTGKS
Sequence of β3-α6-β2-α4-β2 nAChR (P17787 26-502): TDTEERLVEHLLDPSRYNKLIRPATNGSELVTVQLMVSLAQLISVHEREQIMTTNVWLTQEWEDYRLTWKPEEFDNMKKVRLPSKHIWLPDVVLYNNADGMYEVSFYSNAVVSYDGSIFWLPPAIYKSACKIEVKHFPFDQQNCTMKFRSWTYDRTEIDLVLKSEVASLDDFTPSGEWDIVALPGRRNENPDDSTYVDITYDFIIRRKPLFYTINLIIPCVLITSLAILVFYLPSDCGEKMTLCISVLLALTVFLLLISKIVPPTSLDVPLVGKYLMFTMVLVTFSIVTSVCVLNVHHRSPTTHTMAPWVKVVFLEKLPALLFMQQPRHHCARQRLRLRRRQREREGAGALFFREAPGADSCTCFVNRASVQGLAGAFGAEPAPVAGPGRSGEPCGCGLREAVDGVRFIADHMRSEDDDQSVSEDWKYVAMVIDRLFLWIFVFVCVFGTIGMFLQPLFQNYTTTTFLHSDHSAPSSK

(α4β2)2β2 nAChR [4] = molecular target: T2, (α4β2)2β2 nAChR (Homo sapiens, UniProt P17787+P43681); assay: cell-based
T2 sequence (P43681 27-627 limits assumed): as the sequence (P43681 27-627) above
T2 sequence (P17787 26-502 limits assumed): as the sequence (P17787 26-502) above

(α4β2)2α4 nAChR [5] = molecular target: T3, (α4β2)2α4 nAChR (Homo sapiens, UniProt P17787+P43681); assay: cell-based; details: read-out: ACh EC90
T3 sequence (P43681 29-627 limits assumed): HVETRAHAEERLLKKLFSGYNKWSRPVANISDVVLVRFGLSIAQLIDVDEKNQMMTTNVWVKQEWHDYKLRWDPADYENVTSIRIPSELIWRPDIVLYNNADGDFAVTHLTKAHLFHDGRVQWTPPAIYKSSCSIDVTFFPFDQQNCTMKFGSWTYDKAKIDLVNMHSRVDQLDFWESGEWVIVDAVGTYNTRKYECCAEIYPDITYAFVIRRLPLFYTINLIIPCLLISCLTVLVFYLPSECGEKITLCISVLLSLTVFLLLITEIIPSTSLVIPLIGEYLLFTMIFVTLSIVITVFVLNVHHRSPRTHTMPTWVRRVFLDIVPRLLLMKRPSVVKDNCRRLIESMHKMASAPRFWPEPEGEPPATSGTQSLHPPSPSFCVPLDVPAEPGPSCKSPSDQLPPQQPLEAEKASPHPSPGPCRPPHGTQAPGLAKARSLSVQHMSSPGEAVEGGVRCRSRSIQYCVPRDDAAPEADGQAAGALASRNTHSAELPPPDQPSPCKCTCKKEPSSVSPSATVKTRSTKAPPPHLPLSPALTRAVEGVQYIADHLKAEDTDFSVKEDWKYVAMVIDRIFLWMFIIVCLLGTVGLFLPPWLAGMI
T3 sequence (P17787 26-502 limits assumed): as the sequence (P17787 26-502) above

(α3β2)2β2 nAChR [6] = molecular target: T4, (α3β2)2β2 nAChR (Homo sapiens, UniProt P17787+P32297); assay: cell-based
T4 sequence (P32297 32-505 limits assumed): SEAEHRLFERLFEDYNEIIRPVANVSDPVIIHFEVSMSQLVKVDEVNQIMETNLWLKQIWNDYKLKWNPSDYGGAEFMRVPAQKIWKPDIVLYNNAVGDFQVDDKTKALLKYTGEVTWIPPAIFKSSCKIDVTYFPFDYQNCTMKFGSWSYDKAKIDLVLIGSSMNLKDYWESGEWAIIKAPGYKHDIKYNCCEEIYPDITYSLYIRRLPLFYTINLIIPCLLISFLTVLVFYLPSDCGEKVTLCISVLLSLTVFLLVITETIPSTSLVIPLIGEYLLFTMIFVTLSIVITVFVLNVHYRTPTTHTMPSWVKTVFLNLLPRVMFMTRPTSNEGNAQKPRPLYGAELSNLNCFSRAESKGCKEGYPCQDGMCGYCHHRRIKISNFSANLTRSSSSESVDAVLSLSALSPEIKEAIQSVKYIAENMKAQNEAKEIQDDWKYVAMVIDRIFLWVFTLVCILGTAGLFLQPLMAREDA
T4 sequence (P17787 26-502 limits assumed): as the sequence (P17787 26-502) above

α4β2α5 nAChR [7] = molecular target: T5, α4β2α5 nAChR (Homo sapiens, UniProt P17787+P30532+P43681)
T5 sequence (P43681 29-627 limits assumed): as the sequence (P43681 29-627 limits assumed) above
T5 sequence (P17787 26-502 limits assumed): as the sequence (P17787 26-502) above
T5 sequence (P30532 23-468 partner limits assumed): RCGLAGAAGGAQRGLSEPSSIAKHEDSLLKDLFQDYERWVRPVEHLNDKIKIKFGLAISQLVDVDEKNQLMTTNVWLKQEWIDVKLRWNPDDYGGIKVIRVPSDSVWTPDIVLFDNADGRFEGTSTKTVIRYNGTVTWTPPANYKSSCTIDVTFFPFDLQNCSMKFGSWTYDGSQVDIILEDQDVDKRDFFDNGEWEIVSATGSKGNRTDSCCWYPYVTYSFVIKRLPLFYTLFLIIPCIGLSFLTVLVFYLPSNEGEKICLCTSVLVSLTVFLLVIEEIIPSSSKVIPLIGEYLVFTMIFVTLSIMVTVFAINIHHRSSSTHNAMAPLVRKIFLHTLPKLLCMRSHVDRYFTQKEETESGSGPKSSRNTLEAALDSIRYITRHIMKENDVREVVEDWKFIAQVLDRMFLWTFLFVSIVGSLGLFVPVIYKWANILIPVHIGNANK

(α3β4)2β4 nAChR [8] = molecular target: T6, (α3β4)2β4 nAChR (Homo sapiens, UniProt P30926+P32297)
T6 sequence (P32297 32-505 limits assumed): as the sequence (P32297 32-505 limits assumed) above
T6 sequence (P30926 22-498 limits assumed): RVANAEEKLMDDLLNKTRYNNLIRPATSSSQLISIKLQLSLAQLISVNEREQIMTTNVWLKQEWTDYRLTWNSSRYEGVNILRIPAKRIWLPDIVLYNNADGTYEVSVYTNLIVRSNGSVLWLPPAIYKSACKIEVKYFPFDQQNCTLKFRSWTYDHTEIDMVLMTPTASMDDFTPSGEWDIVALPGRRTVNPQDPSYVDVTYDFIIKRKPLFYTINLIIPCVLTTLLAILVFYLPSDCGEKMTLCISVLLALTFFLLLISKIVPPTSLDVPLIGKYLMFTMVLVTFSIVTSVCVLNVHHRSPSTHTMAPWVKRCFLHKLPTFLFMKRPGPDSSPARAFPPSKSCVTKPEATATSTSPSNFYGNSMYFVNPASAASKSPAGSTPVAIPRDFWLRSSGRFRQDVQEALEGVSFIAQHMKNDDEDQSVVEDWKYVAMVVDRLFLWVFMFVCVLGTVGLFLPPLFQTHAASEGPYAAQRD

(α3β4)2α3 nAChR [9] = molecular target: T7, (α3β4)2α3 nAChR (Homo sapiens, UniProt P30926+P32297)
T7 sequence (P32297 32-505 limits assumed): as the sequence (P32297 32-505 limits assumed) above
T7 sequence (P30926 22-498 limits assumed): as the sequence (P30926 22-498 limits assumed) above

α4β2α5 nAChR [10] = molecular target: T5, α4β2α5 nAChR; assay: cell-based; details: read-out: ACh EC90
α6/α3β2β3 nAChR = α6/α3β2β3 nAChR (Homo sapiens, UniProt P17787+P32297+Q05901+Q15825); assay: cell-based
α4β2α5 nAChR [11] = molecular target: T5, α4β2α5 nAChR; assay: cell-based
(α4β2)2β2 nAChR [12] = molecular target: T2, (α4β2)2β2 nAChR; assay: cell-based; details: read-out: % Max Inhibition (95% CI)
(α4β2)2α4 nAChR [13] = molecular target: T3, (α4β2)2α4 nAChR; assay: cell-based
(α3β2)2β2 nAChR [14] = molecular target: T4, (α3β2)2β2 nAChR; assay: cell-based; details: read-out: % Max Inhibition (95% CI)
(α3β2)2α3 nAChR = (α3β2)2α3 nAChR (Homo sapiens, UniProt P17787+P32297); assay: cell-based; details: read-out: % Max Inhibition (95% CI)
(α3β4)2β4 nAChR [15] = molecular target: T6, (α3β4)2β4 nAChR; assay: cell-based; details: read-out: % Max Inhibition (95% CI)
(α3β4)2α3 nAChR [16] = molecular target: T7, (α3β4)2α3 nAChR; assay: cell-based; details: read-out: % Max Inhibition (95% CI)
[17] = read-out: % Max Inhibition (95% CI)

**Q.** How did the “block of ACh EC90 response by MLA” value (α7 nAChR [1]) turn out when CCN1C[C@]2(COC(=O)c3ccccc3N3C(=O)C[C@H](C)C3=O)CC[C@H](OC)[C@@]34[C@@H]5C[C@H]6[C@H](OC)[C@@H]5[C@](O)(C[C@@H]6OC)[C@@](O)([C@@H](OC)[C@H]23)[C@@H]14 [MLA, Methyllycaconitine] was run?
**A.** prevented α7 nAChR activation

**Q.** What about the “NH (95% CI) of ACh curve with co-applied MLA” value (α7 nAChR [2]) of the same compound?
**A.** 0.9 (0.8 - 1.1) and 1.1 (0.9 - 1.2)

**Q.** And the IC50 (α7 nAChR [2]; IC50 (95% CI): ACh apparent potency with co-applied MLA)?
**A.** 330 µM and 412 µM

**Q.** Which results are given for CC(=O)OCC[N+](C)(C)C [ACh, acetylcholine]?
**A.** NH (95% CI) of ACh curve, drug treatment none (α7 nAChR [2]): 1.1 (1.0 - 1.2); NH (1) (95% CI) (α7 nAChR [3]): 1.6 (1.4 – 1.9); EC90 (α7 nAChR [3]; read-out: ACh EC90): 1260 µM; NH (1) (95% CI) (β3-α6-β2-α4-β2 nAChR): 0.77 (0.69 – 0.85); EC90 (β3-α6-β2-α4-β2 nAChR; read-out: ACh EC90): 40 µM; NH (1) (95% CI) ((α4β2)2β2 nAChR [4]): 0.85 (0.76 – 0.95); EC90 ((α4β2)2β2 nAChR [4]; read-out: ACh EC90): 100 µM; EC90 ((α4β2)2α4 nAChR [5]): 316 µM; NH (1) (95% CI) ((α3β2)2β2 nAChR [6]): 0.95 (0.84 – 1.1); EC90 ((α3β2)2β2 nAChR [6]; read-out: ACh EC90): 316 µM; NH (1) (95% CI) (α4β2α5 nAChR [7]): 0.90 (0.82 – 0.99); NH (1) (95% CI) ((α3β4)2β4 nAChR [8]): 1.0 (0.92 – 1.2); NH (1) (95% CI) ((α3β4)2α3 nAChR [9]): 1.9 (1.7 – 2.1); EC90 (α4β2α5 nAChR [10]): 20 µM

**Q.** With CC[C@H](C)[C@H](NC(=O)[C@H](CC(=O)O)NC(=O)[C@H](CS)NC(=O)[C@H](CO)NC(=O)[C@@H](NC(=O)CNC(=O)[C@H](CC(C)C)NC(=O)[C@H](CCCNC(=N)N)NC(=O)[C@@H]1CCCN1C(=O)[C@H](CC(N)=O)NC(=O)[C@H](CCC(=O)O)NC(=O)[C@@H]1CCCN1C(=O)[C@H](CCSC)NC(=O)[C@H](Cc1c[nH]c2ccccc12)NC(=O)[C@@H](NC(=O)[C@@H](NC(=O)[C@@H](N)Cc1ccc(O)cc1)[C@@H](C)O)[C@@H](C)CC)[C@@H](C)O)C(=O)N[C@@H](Cc1ccccc1)C(=O)N[C@H](C(=O)N[C@@H](CC(N)=O)C(=O)N[C@@H](CO)C(=O)N[C@@H](CCCNC(=N)N)C(=O)NCC(=O)N[C@@H](CCCCN)C(=O)N[C@@H](CCCNC(=N)N)C(=O)N[C@@H](C)C(=O)N[C@@H](CO)C(=O)N[C@@H](CCCCN)C(=O)NCC(=O)O)[C@@H](C)O [RVG peptide] as the compound, how does the “% Max Inhibition of ACh EC90 (95% CI)” value (α7 nAChR [1]) read?
**A.** 98 (97 – 99) %

**Q.** And the IC50 (α7 nAChR [1])?
**A.** 25 µM

**Q.** And the IC50 (α6/α3β2β3 nAChR)?
**A.** 300 µM

**Q.** And the inhibition at 1000 µM (α6/α3β2β3 nAChR; [17])?
**A.** 82%

**Q.** What about the IC50 (α4β2α5 nAChR [11]) of the same compound?
**A.** 340 µM

**Q.** And the inhibition at 1000 µM (α4β2α5 nAChR [11]; [17])?
**A.** 67%

**Q.** And the inhibition at 1000 µM ((α4β2)2β2 nAChR [12])?
**A.** 46%

**Q.** What about the IC50 ((α4β2)2α4 nAChR [13]; IC50 (95% CI)) of the same compound?
**A.** 270 µM

**Q.** What about the IC50 ((α4β2)2α4 nAChR [13]; IC50, 95% CI) of the same compound?
**A.** 220 to 340 µM

**Q.** And the inhibition at 1000 µM ((α4β2)2α4 nAChR [13]; [17])?
**A.** 76%

**Q.** What about the inhibition at 1000 µM ((α3β2)2β2 nAChR [14]) of the same compound?
**A.** 57%

**Q.** And the inhibition at 1000 µM ((α3β2)2α3 nAChR)?
**A.** 67%

**Q.** What about the inhibition at 1000 µM ((α3β4)2β4 nAChR [15]) of the same compound?
**A.** 22%

**Q.** And the inhibition at 1000 µM ((α3β4)2α3 nAChR [16])?
**A.** 49%
